According to US20070093520A1, “Method of treatment of diarrhea-predominant irritable bowel syndrome in a subject” (priority 2005, published 2007):

System: diarrhea-predominant IBS subjects
Experiment: 3007 Study: open-label 52-week safety study, adverse events and withdrawals
Conditions: Overall

Cc1nccn1C[C@H]1CCc2c(c3cccc4c3n2CCC4)C1=O [cilansetron, (R)-(−)-4,5,6,8,9,10-hexahydro-10-[(2-methyl-1H-imidazol-1-yl)methyl]-11H-pyrido-[3,2,1-jk]-carbazol-11-one]
TEAE: Sexual Desire Disorders: 1 (<1%) n (%) | TEAE: Sick Sinus Syndrome: 1 (<1%) n (%) | TEAE: Sinus Arrhythmia: 1 (<1%) n (%) | TEAE: Sinus Congestion: 8 (1%) n (%) | TEAE: Sinus Headache: 3 (<1%) n (%) | TEAE: Sinusitis Acute NOS: 1 (<1%) n (%) | TEAE: Sinusitis NOS: 37 (7%) n (%) | TEAE: Site Specific Injuries NEC: 6 (1%) n (%) | TEAE: Skeletal and Cardiac Muscle Analyses: 27 (5%) n (%) | TEAE: Skin Disorder NOS: 1 (<1%) n (%) | TEAE: Skin Fungal Infection NOS: 1 (<1%) n (%) | TEAE: Skin Infection NOS: 1 (<1%) n (%) | TEAE: Skin Injuries and Mechanical Dermatoses: 3 (<1%) n (%) | TEAE: Skin Lesion NOS: 3 (<1%) n (%) | TEAE: Skin Neoplasms Benign: 1 (<1%) n (%) | TEAE: Skin Neoplasms Malignant and Unspecified (Excl Melanoma): 6 (1%) n (%) | TEAE: Skin Structures and Soft Tissue Infections: 3 (<1%) n (%) | TEAE: Skin Ulcer: 1 (<1%) n (%) | TEAE: Skin and Subcutaneous Tissue Disorders: 39 (7%) n (%) | TEAE: Skin and Subcutaneous Tissue Ulcerations: 1 (<1%) n (%) | TEAE: Sleep Apnoea Syndrome: 2 (<1%) n (%) | TEAE: Sleep Apnoeas: 2 (<1%) n (%) | TEAE: Social Circumstances: 1 (<1%) n (%) | TEAE: Soft Tissue Disorders NEC: 2 (<1%) n (%) | TEAE: Soft Tissue Neoplasms Benign NEC: 3 (<1%) n (%) | TEAE: Somnolence: 2 (<1%) n (%) | TEAE: Speech and Language Abnormalities: 1 (<1%) n (%) | TEAE: Spinal Cord and Nerve Root Disorders NEC: 1 (<1%) n (%) | TEAE: Spondylitic Myelopathy: 1 (<1%) n (%) | TEAE: Spondyloarthropathies: 1 (<1%) n (%) | TEAE: Spondylosis: 1 (<1%) n (%) | TEAE: Staphylococcal Infection NOS: 1 (<1%) n (%) | TEAE: Staphylococcal Infections: 1 (<1%) n (%) | TEAE: Status Epilepticus: 1 (<1%) n (%) | TEAE: Stomach Discomfort: 1 (<1%) n (%) | TEAE: Strabismus: 1 (<1%) n (%) | TEAE: Streptococcal Infection NOS: 1 (<1%) n (%) | TEAE: Streptococcal Infections: 8 (1%) n (%) | TEAE: Stress Fracture: 1 (<1%) n (%) | TEAE: Stress Incontinence: 1 (<1%) n (%) | TEAE: Stress Symptoms: 1 (<1%) n (%) | TEAE: Structural and Other Bile Duct Disorders: 1 (<1%) n (%) | TEAE: Sugar Intolerance (Excl Glucose Intolerance): 1 (<1%) n (%) | TEAE: Suicidal Ideation: 1 (<1%) n (%) | TEAE: Suicidal and Self-Injurious Behaviour: 1 (<1%) n (%) | TEAE: Supraventricular Arrhythmias: 4 (<1%) n (%) | TEAE: Supraventricular Tachycardia: 1 (<1%) n (%) | TEAE: Surgical and Medical Procedures: 2 (<1%) n (%) | TEAE: Sweating Increased: 2 (<1%) n (%) | TEAE: Swelling Face: 1 (<1%) n (%) | TEAE: Tachycardia NOS: 1 (<1%) n (%) | TEAE: Temporomandibular Joint Disorder NOS: 1 (<1%) n (%) | TEAE: Tenderness NOS: 1 (<1%) n (%) | TEAE: Tendon Disorders: 3 (<1%) n (%) | TEAE: Tendonitis: 2 (<1%) n (%) | TEAE: Tension Headaches: 1 (<1%) n (%) | TEAE: Thoracic Cage Fractures and Dislocations: 1 (<1%) n (%) | TEAE: Thrombocytopenia: 1 (<1%) n (%) | TEAE: Thrombocytopenias: 1 (<1%) n (%) | TEAE: Thrombophlebitis Superficial: 1 (<1%) n (%) | TEAE: Thyroid Disorders NEC: 1 (<1%) n (%) | TEAE: Thyroid Hypofunction Disorders: 2 (<1%) n (%) | TEAE: Thyroid Neoplasms: 1 (<1%) n (%) | TEAE: Thyroid Nodule: 1 (<1%) n (%) | TEAE: Tinea Cruris: 1 (<1%) n (%) | TEAE: Tinea Infections: 2 (<1%) n (%) | TEAE: Tinea Pedis: 1 (<1%) n (%) | TEAE: Tinnitus: 1 (<1%) n (%) | TEAE: Tissue Enzyme Analyses NEC: 3 (<1%) n (%) | TEAE: Tongue Coated: 1 (<1%) n (%) | TEAE: Tongue Signs and Symptoms: 1 (<1%) n (%) | TEAE: Tooth Abscess: 7 (1%) n (%) | TEAE: Tooth Disorder NOS: 1 (<1%) n (%) | TEAE: Tooth Impacted: 1 (<1%) n (%) | TEAE: Tooth Infection: 2 (<1%) n (%) | TEAE: Toothache: 3 (<1%) n (%) | TEAE: Total Fluid Volume Decreased: 2 (<1%) n (%) | TEAE: Total Number of Subjects with at Least One TEAE: 437 (82%) n (%) | TEAE: Transient Global Amnesia: 1 (<1%) n (%) | TEAE: Tremor: 2 (<1%) n (%) | TEAE: Tremor (Excl Congenital): 2 (<1%) n (%) | TEAE: Trigger Finger: 1 (<1%) n (%) | TEAE: Triglyceride Analyses: 10 (2%) n (%) | TEAE: Tympanic Membrane Disorder NOS: 1 (<1%) n (%) | TEAE: Tympanic Membrane Disorders (Excl Infections): 1 (<1%) n (%) | TEAE: Umbilical Hernia NOS: 1 (<1%) n (%) | TEAE: Umbilical Hernias: 1 (<1%) n (%) | TEAE: Upper Limb Fractures and Dislocations: 1 (<1%) n (%) | TEAE: Upper Respiratory Tract Infection NOS: 26 (5%) n (%) | TEAE: Upper Respiratory Tract Infections - Pathogen Class Unspecified: 61 (11%) n (%) | TEAE: Upper Respiratory Tract Signs and Symptoms: 7 (1%) n (%) | TEAE: Urinalysis NEC: 16 (3%) n (%) | TEAE: Urinary Abnormalities: 6 (1%) n (%) | TEAE: Urinary Frequency: 3 (<1%) n (%) | TEAE: Urinary Incontinence: 1 (<1%) n (%) | TEAE: Urinary Retention: 1 (<1%) n (%) | TEAE: Urinary Tract Infection NOS: 26 (5%) n (%) | TEAE: Urinary Tract Infections: 29 (5%) n (%) | TEAE: Urinary Tract Lithiasis (Excl Renal): 1 (<1%) n (%) | TEAE: Urinary Tract Signs and Symptoms NEC: 1 (<1%) n (%) | TEAE: Urine Abnormal NOS: 1 (<1%) n (%) | TEAE: Urine Analysis Abnormal NOS: 1 (<1%) n (%) | TEAE: Urine Bilirubin Increased: 1 (<1%) n (%) | TEAE: Urine Ketone Body Present: 5 (<1%) n (%) | TEAE: Urine Leukocyte Esterase Positive: 5 (<1%) n (%) | TEAE: Urobilin Urine Present: 1 (<1%) n (%) | TEAE: Urticaria NOS: 3 (<1%) n (%) | TEAE: Urticarias: 3 (<1%) n (%) | TEAE: Uterine Disorders NEC*: 2 (<1%) n (%) | TEAE: Uterine Fibroids*: 1 (<1%) n (%) | TEAE: Uterine Neoplasms Benign*: 1 (<1%) n (%) | TEAE: Uterine Neoplasms*: 2 (<1%) n (%) | TEAE: Uterine Polyp NOS*: 2 (<1%) n (%) | TEAE: Vaginal Cyst*: 1 (<1%) n (%) | TEAE: Vaginal Lesion*: 1 (<1%) n (%) | TEAE: Varicose Vein Ruptured: 2 (<1%) n (%) | TEAE: Varicose Veins Non-Site Specific: 2 (<1%) n (%) | TEAE: Vascular Auscultatory Investigations: 2 (<1%) n (%) | TEAE: Vascular Disorders: 21 (4%) n (%) | TEAE: Vascular Hypertensive Disorders NEC: 15 (3%) n (%) | TEAE: Vascular Hypotensive Disorders: 1 (<1%) n (%) | TEAE: Vascular Tests NEC (Incl Blood Pressure): 5 (<1%) n (%) | TEAE: Vasovagal Attack: 1 (<1%) n (%) | TEAE: Ventricular Arrhythmias and Cardiac Arrest: 2 (<1%) n (%) | TEAE: Ventricular Extrasystoles: 1 (<1%) n (%) | TEAE: Vertigo: 2 (<1%) n (%) | TEAE: Viral Infection NOS: 4 (<1%) n (%) | TEAE: Viral Infections NEC: 15 (3%) n (%) | TEAE: Visual Acuity Reduced: 1 (<1%) n (%) | TEAE: Vitreous Disorder NOS: 1 (<1%) n (%) | TEAE: Vomiting NOS: 18 (3%) n (%) | TEAE: Vulvovaginal Cysts and Neoplasms*: 1 (<1%) n (%) | TEAE: Vulvovaginal Dryness*: 2 (<1%) n (%) | TEAE: Vulvovaginal Signs and Symptoms*: 3 (<1%) n (%) | TEAE: Weight Decreased: 2 (<1%) n (%) | TEAE: Weight Increased: 6 (1%) n (%) | TEAE: Wheezing: 1 (<1%) n (%) | TEAE: White Blood Cell Analyses: 5 (<1%) n (%) | TEAE: White Blood Cell Count Decreased: 1 (<1%) n (%) | TEAE: White Blood Cells Urine Positive: 1 (<1%) n (%) | TEAE leading to permanent discontinuation: Abdominal Distension (N=536): 4 (<1%) n (%) | TEAE leading to permanent discontinuation: Abdominal Pain Aggravated (N=536): 1 (<1%) n (%) | TEAE leading to permanent discontinuation: Abdominal Pain Lower (N=536): 2 (<1%) n (%) | TEAE leading to permanent discontinuation: Abdominal Pain NOS (N=536): 11 (2%) n (%) | TEAE leading to permanent discontinuation: Abdominal Pain Upper (N=536): 4 (<1%) n (%) | TEAE leading to permanent discontinuation: Alanine Aminotransferase Increased (N=536): 1 (<1%) n (%) | TEAE leading to permanent discontinuation: Angina Pectoris (N=536): 1 (<1%) n (%) | TEAE leading to permanent discontinuation: Appendicitis (N=536): 1 (<1%) n (%) | TEAE leading to permanent discontinuation: Asthma Aggravated (N=536): 1 (<1%) n (%) | TEAE leading to permanent discontinuation: Asthma NOS (N=536): 1 (<1%) n (%) | TEAE leading to permanent discontinuation: Back Pain (N=536): 4 (<1%) n (%) | TEAE leading to permanent discontinuation: Bladder Prolapse (N=536): 1 (<1%) n (%) | TEAE leading to permanent discontinuation: Blood Bilirubin Increased (N=536): 1 (<1%) n (%) | TEAE leading to permanent discontinuation: Blood Pressure Increased (N=536): 1 (<1%) n (%) | TEAE leading to permanent discontinuation: Blood Urine Present (N=536): 1 (<1%) n (%) | TEAE leading to permanent discontinuation: Bone Neoplasm Malignant (N=536): 1 (<1%) n (%) | TEAE leading to permanent discontinuation: Cardiac Disorders (N=536): 1 (<1%) n (%) | TEAE leading to permanent discontinuation: Chest Discomfort (N=536): 1 (<1%) n (%) | TEAE leading to permanent discontinuation: Chest Pain (N=536): 1 (<1%) n (%) | TEAE leading to permanent discontinuation: Chest Wall Pain (N=536): 1 (<1%) n (%) | TEAE leading to permanent discontinuation: Colitis Ischaemic (N=536): 1 (<1%) n (%) | TEAE leading to permanent discontinuation: Constipation (N=536): 28 (5%) n (%) | TEAE leading to permanent discontinuation: Cough (N=536): 1 (<1%) n (%) | TEAE leading to permanent discontinuation: Dehydration (N=536): 1 (<1%) n (%) | TEAE leading to permanent discontinuation: Depression (N=536): 1 (<1%) n (%) | TEAE leading to permanent discontinuation: Diarrhoea Aggravated (N=536): 2 (<1%) n (%) | TEAE leading to permanent discontinuation: Diarrhoea Haemorrhagic (N=536): 1 (<1%) n (%) | TEAE leading to permanent discontinuation: Diarrhoea NOS (N=536): 6 (1%) n (%) | TEAE leading to permanent discontinuation: Dizziness (N=536): 2 (<1%) n (%)
